Laboratory results reported in paper PMC11941218, “Juglone-Bearing Thiopyrano[2,3-d]thiazoles Induce Apoptosis in Colorectal Adenocarcinoma Cells” (Cells, 2025).

Experiments:
[1] = system: HT-29 colorectal adenocarcinoma cells; assay: Colony forming (clonogenic) assay; assay type: cell-based, human; conditions: for inhibition of colony formation: HT-29, 2.5 µM; for inhibition at 1 µM / IC50: Homo sapiens; for inhibition at 1 µM: HT-29, 1 µM, read-out: inhibition of colony formation; for IC50: HT-29, 72 h treatment, 14 days of incubation, n = 3
Method: (§1) For colony forming assay, HT-29 and DLD-1 cells were seeded in 12-well plates at a density of 500 cells in 2 mL of growth medium per well. After overnight incubation, the cells were exposed to the compounds Les-6547, Les-6557, and doxorubicin at concentrations ranging from 0.1 to 100 µM for 72 h. Following treatment, the medium was replaced with fresh medium without the compounds. After 14 days of culture, cells were rinsed with PBS and fixed with cold methanol for 10 min. Subsequently, the cells were stained with a 0.1% crystal violet solution for 10 min. After washing, the plates were allowed to dry at room temperature. Numbers of colonies were quantified using ImageJ software (version 1.5.4; National Institutes of Health, Bethesda, MD, USA). The effect of the compounds on the colony-forming capacity was calculated as a percentage of colonies relative to the untreated control group.

[2] = system: DLD-1 colorectal adenocarcinoma cells; assay: Colony forming (clonogenic) assay; assay type: cell-based, human; conditions: for inhibition of colony formation: DLD-1, 2.5 µM; for inhibition at 1 µM / IC50: Homo sapiens; for inhibition at 1 µM: DLD-1, 1 µM, read-out: inhibition of colony formation; for IC50: DLD-1, 72 h treatment, 14 days of incubation, M ± SD, n = 3
Method: as §1

[3] = system: HT-29 colorectal adenocarcinoma cells; assay: [^3H]-thymidine incorporation assay (DNA biosynthesis); assay type: cell-based; conditions: Homo sapiens; HT-29, 24 h, M ± SD, n = 3
Method: (§2) The anti-proliferative potential of Les-6547 and Les-6557 was analyzed using a clonogenic assay and incorporation of radioactive [^3H]-thymidine into the DNA of colorectal adenocarcinoma HT-29 and DLD-1 cell lines after 24 h of incubation with various concentrations of the tested agents.
(§3) Next, we examined the effects of the tested compounds on the proliferative activity of human colorectal adenocarcinoma cells by assessing their ability to influence DNA biosynthesis using the thymidine incorporation assay (Figure 6, Table 8). Les-6547 decreased DNA biosynthesis in DLD-1 cells to 50% at a concentration of 2.19 ± 0.39 µM.

[4] = system: DLD-1 colorectal adenocarcinoma cells; assay: as above; assay type: cell-based; conditions: Homo sapiens; DLD-1, 24 h, M ± SD, n = 3
Method: as §2, §3

[5] = system: DLD-1 colorectal adenocarcinoma cells; assay: MTT assay; assay type: cell-based, human; conditions: for IC50: Homo sapiens
Method: (§4) DLD-1, HaCaT, and Balb/c 3T3 cells were maintained in DMEM, while HT-29 cells were grown in McCoy’s 5A medium with 10% FBS and 1% penicillin/streptomycin. All cell lines were incubated at 37 °C in a humidified atmosphere with 5% CO2. After detaching the cells with trypsin, they were quantified using a Scepter 3.0 automated cell counter (Millipore, Burlington, MA, USA).
(§5) The metabolic activity of cells exposed to the tested derivatives, doxorubicin, and DMSO, was assessed using an MTT assay according to the manufacturer’s protocol (Sigma-Aldrich, St. Louis, MO, USA). Adherent cells were seeded into 96-well plates (5000–10,000 cells in 100 µL of growth medium per well) and allowed to adhere overnight before treatment. For lymphocytes, activation with phytohemagglutinin-L (1 µg/mL) was performed for 24 h, after which they were seeded in 96-well plates at a density of 100,000 cells/well in RPMI-1640 medium supplemented with 20% FBS. The test substances, including Les-6547, Les-6557, and doxorubicin, were added to 100 µL of culture medium to achieve final concentrations of 0 µM, 0.1 µM, 1 µM, 2.5 µM, 10 µM, and 100 µM for all compounds, and the cells were further incubated for 24, 48, or 72 h. DMSO-treated cells served as the control. Then, 20 µL of MTT solution (5 mg/mL) was added and incubated for 2–4 h to allow formazan crystal formation. The formazan crystals were then solubilized by adding DMSO. The absorbance of formazan was measured at 570 nm using a ThermoScientific Evolution 201 UV-VIS spectrophotometer (ThermoFisher Scientific, Waltham, MA, USA). The control condition with 0.5% DMSO was considered 100% viability. The IC50 values for the compounds were determined using GraphPad Prism 8 and 9 software (GraphPad Software, Boston, MA, USA).

[6] = system: HT-29 colorectal adenocarcinoma cells; assay: Apoptosis assay, FITC-Annexin V/propidium iodide flow cytometry; assay type: cell-based, human; conditions: HT-29, 24 h; Les-6547 5 μM, Les-6557 10 μM
Method: The pro-apoptotic effects of the tested compounds were assessed using the FITC Annexin V Apoptosis Detection Kit II in conjunction with a BD FACSCanto II flow cytometer (BD Biosciences, San Jose, CA, USA). The experimental procedure adhered to the manufacturer’s instructions and previously established protocols.
Initially, HT-29 cells were seeded in 6-well plates at a density of 300,000 cells per well in 2 mL of culture medium and incubated overnight to allow adherence. Subsequently, the cells were treated with Les-6547 (5 µM) and Les-6557 (10 µM) for 24 h. After exposure to the compounds, the cells were rinsed twice with cold PBS and suspended in the binding buffer provided in the kit. FITC Annexin V and propidium iodide (PI) were added to the 100 µL cell suspension, followed by 15-min incubation at room temperature, shielded from light.
After the incubation, 300 µL of binding buffer was added to each sample, and analysis was performed using the flow cytometer, with 10,000 events recorded per sample. Data were processed using FACSDiva software (version 6.1.3, BD Biosciences, San Jose, CA, USA). Calibration of the instrument was ensured using a BD Cytometer Setup and Tracking Beads (BD Biosciences, San Diego, CA, USA).

[7] = system: HT-29 colorectal adenocarcinoma cells; assay: MTT assay; assay type: cell-based; conditions: Homo sapiens
Method: as §4, §5

[8] = system: HaCaT (human keratinocytes); assay: MTT assay; assay type: cell-based; conditions: 72 h, M ± SD, n = 3
Method: as §4, §5

[9] = system: Balb/c 3T3 (mouse fibroblasts); assay: MTT assay; assay type: cell-based; conditions: BALB/c3T3, Balb/c 3T3, MTT, 72 h, M ± SD, n = 3
Method: as §4, §5

[10] = DLD-1, MTT, 24, 48 and 72 h, read-out: IC50 (range over incubation times)
[11] = DLD-1, MTT, 24 h, M ± SD, n = 3, read-out: IC50
[12] = DLD-1, MTT, 48 h, M ± SD, n = 3, read-out: IC50
[13] = DLD-1, MTT, 72 h, M ± SD, n = 3, read-out: IC50
[14] = HT-29, MTT, 24, 48 and 72 h, read-out: IC50 (range over incubation times)
[15] = HT-29, MTT, 24 h, M ± SD, n = 3, read-out: IC50
[16] = HT-29, MTT, 48 h, M ± SD, n = 3, read-out: IC50
[17] = HT-29, MTT, 72 h, M ± SD, n = 3, read-out: IC50

Compound	inhibition of colony formation [1]	inhibition at 1 µM [1] [%]	IC50 [1] [µM]	inhibition of colony formation [2]	inhibition at 1 µM [2] [%]	IC50 [2] [µM]	IC50 [3] [µM]	IC50 [4] [µM]	inhibition of viability, times more effective than Les-6547 ([5]; DLD-1, MTT, 48 h, versus Les-6547) [times]	IC50 [5, 10] [µM]	IC50 [5, 11] [µM]	IC50 [5, 12] [µM]	IC50 [5, 13] [µM]	apoptotic cells (sum of early and late apoptotic cells) [6] [%]	IC50 [7, 14] [µM]	IC50 [7, 15] [µM]	IC50 [7, 16] [µM]	IC50 [7, 17] [µM]	IC50 [8] [µM]	IC50 [9] [µM]
O=C1C2=C(C(=O)c3c(O)cccc31)C(c1ccc(Cl)cc1)c1sc(=O)[nH]c1S2 (stereo not drawn) [Les-6557]	completely inhibited colony formation	100	~0.5	completely inhibited colony formation	99	0.33 ± 0.05	2.91 ± 0.38	4.65 ± 0.02	2.5	1.94 to 16.9	16.9 ± 3.32	1.94 ± 0.05	5.19 ± 1.14	31.9	6.54 to 10.4	10.4 ± 0.23	6.54 ± 0.07	9.78 ± 0.03	68.37 ± 0.57	40.26 ± 0.35
O=C1C2=C(C(=O)c3c(O)cccc31)C(c1cc(Cl)ccc1O)c1sc(=O)[nH]c1S2 (stereo not drawn) [Les-6547]	completely inhibited colony formation	100	~0.5	completely inhibited colony formation	99	0.4 ± 0.06	2.21 ± 0.39	2.19 ± 0.39	–	5.14 to 6.62	5.14 ± 0.81	5.17 ± 0.58	6.62 ± 0.07	36.2	4.29 to 5.72	5.72 ± 0.41	4.29 ± 0.5	4.44 ± 0.35	89.64 ± 0.84	31.7 ± 0.41
